From patent US20250276952A1, “4-AMINOPHENYL-THIAZOLE DERIVATIVES AND METHODS OF USE THEREOF” (CYTEIR THERAPEUTICS, INC., priority 2022, published 2025)
Like-named read-outs stand apart in the source and are kept apart here.

Key:
[1] = tested on: Daudi (Burkitt Lymphoma) cells; assay: Intracellular lactate accumulation assay (Lactate-Glo, 2 h treatment); type: cell-based; conditions: Homo sapiens, read-out: LactateGlo EC50
Method: Intracellular lactate accumulation after a 2 h treatment with compounds of the present invention was measured in Daudi (Burkitt Lymphoma) cells using the Lactate-Glo Assay (Promega).
Daudi cells were seeded at 7,500 cells per well in 150 μL of growth medium (RPMI-1640 with 2 mM GlutaMAX+10% FBS) in clear, 96-well, flat-bottom microplates, and incubated overnight (37° C., 5% CO2). Compounds of the present invention were added using an INTEGRA VIAFLO 96 (8 point, 3-fold serial dilution, top concentration 1, 10, or 20 μM, 0.4% final DMSO concentration). After a 2 h incubation (37° C., 5% CO2) microplates containing cells were washed twice with 150 μL ice-cold PBS, resuspended in 25 μL ice-cold PBS containing 12.5 μL 0.6N HCl, and placed on a microplate shaker for 5 min to lyse the cells. Following lysis, 12.5 μL 1M Trizma base was added to neutralize the suspension, and microplates were returned to the microplate shaker for 1 min. Plates were sealed and stored at −20° C. until further processing. On the day of the assay, microplates were thawed for 45 min at room temperate and […] Lactate Detection Reagent (prepared as specified by manufacturer) was added to each well. Microplates were placed on a plate shaker for 1 min and incubated at room temperature for 1 h. Luminescence was measured using a BioTek Cytation 5 Multi-Mode Reader. Curve fitting and calculation of EC50 was performed using GraphPad Prism.

human MCT1 = biological target: T1, human MCT1 (Homo sapiens, UniProt P53985); assay: MCT1 transport inhibition assay (TPGA uptake, LC-MS/MS); type: cell-based; conditions: MDCK-II cells overexpressing human MCT1, TPGA transport, read-out: BioIVT MCT1 Transporter IC50
T1 construct: expressed in transfected cells; host or cells: MDCK-II cells, transiently co-transfected for 48 h
T1 sequence (P53985 1-500): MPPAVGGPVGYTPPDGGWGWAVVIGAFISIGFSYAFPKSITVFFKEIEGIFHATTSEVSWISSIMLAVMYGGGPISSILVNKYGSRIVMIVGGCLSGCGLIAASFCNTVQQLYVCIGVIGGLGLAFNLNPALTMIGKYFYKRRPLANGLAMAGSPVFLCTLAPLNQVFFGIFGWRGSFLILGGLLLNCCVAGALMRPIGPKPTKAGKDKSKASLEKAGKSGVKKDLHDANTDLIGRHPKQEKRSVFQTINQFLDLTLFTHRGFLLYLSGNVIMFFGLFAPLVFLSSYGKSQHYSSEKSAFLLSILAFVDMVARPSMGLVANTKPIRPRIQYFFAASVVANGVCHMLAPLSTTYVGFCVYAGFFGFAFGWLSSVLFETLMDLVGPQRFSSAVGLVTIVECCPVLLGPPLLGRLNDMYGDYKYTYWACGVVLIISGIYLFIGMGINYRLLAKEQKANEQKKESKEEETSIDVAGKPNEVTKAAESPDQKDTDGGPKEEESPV
T1 sequence (P35613 140-385 partner limits assumed): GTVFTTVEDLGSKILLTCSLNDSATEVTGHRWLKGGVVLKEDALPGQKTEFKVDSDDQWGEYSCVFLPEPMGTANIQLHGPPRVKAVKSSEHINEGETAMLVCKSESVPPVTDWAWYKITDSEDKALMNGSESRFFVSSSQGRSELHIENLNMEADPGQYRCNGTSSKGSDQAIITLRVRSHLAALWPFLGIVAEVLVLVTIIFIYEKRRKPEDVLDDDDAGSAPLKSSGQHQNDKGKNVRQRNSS
Method: Inhibition of MCT1 transport after treatment with compounds of the present invention was measured in MDCK-II cells that overexpress human MCT1 by quantifying the transport of 2-Thiophene-glycoxylic acid (TPGA) into cells using LC-MS/MS.
MDCK-II cells are seeded at 60,000 cells per well in growth medium (low-glucose DMEM+10% FBS) in 96-well trans-well membrane plates, and incubated overnight (37° C., 5% CO2). Cells were co-transfected with mammalian expression constructs coding for MCT1 and CD147 at a 2:1 ratio or an empty vector control (GFP) and then incubated for 48 h (37° C., 5% CO2). Cells were washed 3 times with HBSS and cells were preincubated with inhibitors or vehicle control at room temperature in HBSS for 30 min with orbital shaking (60 rpm). HBSS was aspirated from the wells and replaced with HBSS with 25 mM Bis-Tris pH5.5+inhibitor or vehicle control+500 μM TPGA and incubated for 1 min at room temperature with orbital shaking (60 rpm). Both the apical and basolateral side of the trans-well insert were washed 4 times with ice-cold PBS. Cells were lysed with 60 μL of cell extraction solution, and the amount of TPGA in each well was quantified in triplicate by LC-MS/MS. The MCT1-mediated uptake rate was calculated using the following equation: […]
Percent inhibition for each concentration of inhibitor tested was calculated using the following equation: […]
Curves were fit to the calculated percent inhibition for each inhibitor, and the IC50 representing the concentration of inhibitor at which MCT1 is inhibited by 50% was calculated from this curve.

| SMILES | EC50 [1] | further results |
| --- | --- | --- |
| CC(C)OC(=O)Nc1ccc(-c2cnc([C@H]3CC[C@H](NC(=O)OC(C)C)CC3)s2)c(F)c1 [Example 23, isopropyl ((trans)-4-(5-(2-fluoro-4-((isopropoxycarbonyl)amino)phenyl)thiazol-2-yl)cyclohexyl)carbamate] | > 5000 nM | – |
| CC(C)OC(=O)N[C@H]1CC[C@H](c2ncc(-c3ccc(NC(=O)NCc4ccccc4)cc3O)s2)CC1 [Example 20, isopropyl ((trans)-4-(5-(4-(3-benzylureido)-2-hydroxyphenyl)thiazol-2-yl)cyclohexyl)carbamate] | < 50 nM | – |
| Cc1[nH]nc(C(F)(F)F)c1Cc1sc2c(c1C(=O)N1C[C@](C)(O)CO1)c(=O)n(C)c(=O)n2C(C)C [AZD3965] | – | IC50 (human MCT1; numeric values): 190 nM |
| COCCn1c(-c2ccc(NC(=O)OC(C)C)cc2F)cnc1[C@H]1CC[C@H](NC(=O)OC(C)C)CC1 [Example 32, isopropyl ((trans)-4-(5-(2-fluoro-4-((isopropoxycarbonyl)amino)phenyl)-1-(2-methoxyethyl)-1H-imidazol-2-yl)cyclohexyl)carbamate] | – | IC50 (human MCT1; class symbols): > 5000 nM |
| O=C(Nc1ccccc1C(=O)O)c1cc(S(=O)(=O)c2ccccc2)ccc1Cl [BAY8002] | – | IC50 (human MCT1; numeric values): 73 nM |
| COc1cc(NC(=O)OC(C)C)ccc1-c1cnc([C@H]2CC[C@H](NC(=O)OC(C)C)CC2)s1 [Example 14, isopropyl ((trans)-4-(5-(4-((isopropoxycarbonyl)amino)-2-methoxyphenyl)thiazol-2-yl)cyclohexyl)carbamate] | 150 to 1000 nM | – |
| CC(C)OC(=O)N[C@H]1CC[C@H](c2ncc(-c3ccc(NC(=O)NCc4ccccc4)cc3N)s2)CC1 [Example 19, isopropyl ((trans)-4-(5-(2-amino-4-(3-benzylureido)phenyl)thiazol-2-yl)cyclohexyl)carbamate] | < 50 nM | – |
